# pIC50: −log10 of the molar value. The source made the active and inactive calls. No cut-off for these calls is given here.
# Legend:
# [1] = Toxicity in Swiss albino mouse assessed as drug tolerance at 15 to 150 mg/kg administered as single ip dose measured upto 24 hrs; format: organism-based; conditions: in vivo, dose 15-150 mg/kg
# [2] = molecular target: Protein arginine N-methyltransferase 3 (Homo sapiens, UniProt O60678); assay: Inhibition of PRMT3 (unknown origin) using [3H-SAM] as substrate incubated for 1 hr by scintillation proximity assay
# [3] = molecular target: Interleukin-1 receptor-associated kinase 4 (Homo sapiens) (UniProt Q9NWZ3); assay: Inhibition of full length human N-terminal GST tagged IRAK4 (1 to 460 end residues) expressed in baculovirus expression system using IRAK1 as substrate at 10 uM by mobility shift assay relative to control
# [4] = molecular target: Alpha-1D adrenergic receptor (Homo sapiens) (UniProt P25100); assay: Inhibition of Alpha1D receptor (unknown origin) at 10 uM by radioligand binding assay relative to control
# [5] = molecular target: Vascular endothelial growth factor receptor 2 (Homo sapiens) (UniProt P35968); assay: Inhibition of human cytoplasmic domain N-terminal GST tagged KDR (790 to 1356 end residues) expressed in baculovirus expression system using CSKtide as substrate at 10 uM by mobility shift assay relative to control
# [6] = molecular target: Sigma intracellular receptor 2 (Homo sapiens, UniProt Q5BJF2); assay: Inhibition of Sigma2 receptor (unknown origin) at 10 uM by radioligand binding assay relative to control
# Chain of Sigma intracellular receptor 2 (Q5BJF2 whole entry, the tested form may be a part): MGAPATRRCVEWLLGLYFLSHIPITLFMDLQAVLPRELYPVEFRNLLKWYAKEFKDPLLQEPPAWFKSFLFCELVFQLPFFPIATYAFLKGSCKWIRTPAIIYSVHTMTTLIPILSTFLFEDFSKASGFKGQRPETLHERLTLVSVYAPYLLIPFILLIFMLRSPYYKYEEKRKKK
# [7] = molecular target: Tyrosine-protein kinase JAK3 (Homo sapiens) (UniProt P52333); assay: Inhibition of human catalytic domain N-terminal his tagged JAK3 (795 to 1124 end residues) expressed in baculovirus expression system using Srctide as substrate at 10 uM by mobility shift assay relative to control
# [8] = molecular target: Protein arginine N-methyltransferase 1 (Homo sapiens, UniProt Q99873); assay: Inhibition of PRMT1 (unknown origin) using [3H-SAM] as substrate incubated for 1 hr by scintillation proximity assay
# DB [9] = assay: Downregulation of H3K27me3 level in human DB cells at 3000 nM measured after 3 days; format: functional, cell-based; conditions: time 3.0 day
# [10] = molecular target: Tyrosine-protein kinase ITK/TSK (Homo sapiens) (UniProt Q08881); assay: Inhibition of human cytoplasmic domain N-terminal GST tagged ITK (2 to 620 end residues) expressed in baculovirus expression system using Srctide as substrate at 10 uM by mobility shift assay relative to control
# [11] = molecular target: Histone-lysine N-methyltransferase SETD7 (Homo sapiens, UniProt Q8WTS6); assay: Inhibition of SETD7 (unknown origin) using [3H-SAM] as substrate incubated for 1 hr by scintillation proximity assay
# [12] = molecular target: Alpha-1B adrenergic receptor (Homo sapiens) (UniProt P35368); assay: Inhibition of Alpha1B receptor (unknown origin) at 10 uM by radioligand binding assay relative to control
# [13] = molecular target: Mitogen-activated protein kinase 9 (Homo sapiens) (UniProt P45984); assay: Inhibition of human catalytic domain N-terminal GST tagged JNK2 (1 to 364 residues) expressed in Escherichia coli expression system using modified Erktide as substrate at 10 uM by mobility shift assay relative to control
# Chain of Mitogen-activated protein kinase 9 (Homo sapiens) (P45984 whole entry, looked up, the tested form may be a part): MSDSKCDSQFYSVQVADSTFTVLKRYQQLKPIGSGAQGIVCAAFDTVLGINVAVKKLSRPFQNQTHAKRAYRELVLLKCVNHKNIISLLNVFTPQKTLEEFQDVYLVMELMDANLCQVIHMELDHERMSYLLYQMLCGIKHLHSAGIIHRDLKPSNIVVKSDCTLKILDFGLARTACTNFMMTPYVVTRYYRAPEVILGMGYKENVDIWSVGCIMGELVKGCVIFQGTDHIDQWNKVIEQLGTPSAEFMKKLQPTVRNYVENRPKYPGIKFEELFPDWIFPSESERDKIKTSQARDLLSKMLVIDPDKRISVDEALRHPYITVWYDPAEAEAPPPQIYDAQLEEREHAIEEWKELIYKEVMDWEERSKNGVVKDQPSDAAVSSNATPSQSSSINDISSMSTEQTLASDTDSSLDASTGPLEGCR
# DB [14] = assay: Downregulation of EZH2 level in human DB cells at 3000 nM measured after 3 days; format: functional, cell-based; conditions: time 3.0 day
# [15] = molecular target: Kappa-type opioid receptor (Homo sapiens) (UniProt P41145); assay: Inhibition of KOR (unknown origin) at 10 uM by radioligand binding assay relative to control
# [16] = molecular target: Lymphokine-activated killer T-cell-originated protein kinase (Homo sapiens) (UniProt Q96KB5); assay: Inhibition of full length human N-terminal GST tagged PBK (1 to 322 end residues) expressed in baculovirus expression system using histone H3 as substrate at 10 uM by mobility shift assay relative to control
# Chain of Lymphokine-activated killer T-cell-originated protein kinase (Homo sapiens) (Q96KB5 whole entry): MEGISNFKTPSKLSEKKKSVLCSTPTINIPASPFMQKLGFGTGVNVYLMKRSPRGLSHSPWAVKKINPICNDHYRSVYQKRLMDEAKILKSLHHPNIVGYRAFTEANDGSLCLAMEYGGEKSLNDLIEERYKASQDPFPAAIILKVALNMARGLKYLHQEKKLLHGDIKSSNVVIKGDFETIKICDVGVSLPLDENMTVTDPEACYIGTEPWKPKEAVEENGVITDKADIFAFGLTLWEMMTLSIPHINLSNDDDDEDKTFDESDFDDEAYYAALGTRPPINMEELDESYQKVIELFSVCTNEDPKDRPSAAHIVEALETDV
# [17] = molecular target: Muscarinic acetylcholine receptor M3 (Homo sapiens) (UniProt P20309); assay: Inhibition of M3 receptor (unknown origin) at 10 uM by radioligand binding assay relative to control
# [18] = molecular target: 5-hydroxytryptamine receptor 1E (Homo sapiens) (UniProt P28566); assay: Inhibition of 5-HT1E receptor (unknown origin) at 10 uM by radioligand binding assay relative to control
# [19] = molecular target: Serine/threonine-protein kinase Nek2 (Homo sapiens) (UniProt P51955); assay: Inhibition of full length human N-terminal his-tagged NEK2 (1 to 445 end residues) expressed in baculovirus expression system using CDK7 peptide as substrate at 10 uM by mobility shift assay relative to control
# Chain of Serine/threonine-protein kinase Nek2 (Homo sapiens) (P51955 whole entry): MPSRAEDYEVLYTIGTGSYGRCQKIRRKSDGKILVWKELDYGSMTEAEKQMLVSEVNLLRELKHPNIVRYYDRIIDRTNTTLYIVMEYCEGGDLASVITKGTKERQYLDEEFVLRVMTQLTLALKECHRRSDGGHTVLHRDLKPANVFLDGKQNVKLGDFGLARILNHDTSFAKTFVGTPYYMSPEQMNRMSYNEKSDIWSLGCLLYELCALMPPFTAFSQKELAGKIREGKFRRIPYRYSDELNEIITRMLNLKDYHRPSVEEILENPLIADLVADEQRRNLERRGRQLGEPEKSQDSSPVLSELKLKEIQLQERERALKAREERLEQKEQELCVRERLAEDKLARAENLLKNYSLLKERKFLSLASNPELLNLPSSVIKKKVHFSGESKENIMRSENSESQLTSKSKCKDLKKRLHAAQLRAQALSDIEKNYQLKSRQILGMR
# [20] = molecular target: D(2) dopamine receptor (Homo sapiens) (UniProt P14416); assay: Inhibition of dopamine D2 receptor (unknown origin) at 10 uM by radioligand binding assay relative to control
# [21] = molecular target: 5-hydroxytryptamine receptor 2C (Homo sapiens) (UniProt P28335); assay: Inhibition of 5-HT2C receptor (unknown origin) at 10 uM by radioligand binding assay relative to control
# Chain of 5-hydroxytryptamine receptor 2C (Homo sapiens) (P28335 whole entry): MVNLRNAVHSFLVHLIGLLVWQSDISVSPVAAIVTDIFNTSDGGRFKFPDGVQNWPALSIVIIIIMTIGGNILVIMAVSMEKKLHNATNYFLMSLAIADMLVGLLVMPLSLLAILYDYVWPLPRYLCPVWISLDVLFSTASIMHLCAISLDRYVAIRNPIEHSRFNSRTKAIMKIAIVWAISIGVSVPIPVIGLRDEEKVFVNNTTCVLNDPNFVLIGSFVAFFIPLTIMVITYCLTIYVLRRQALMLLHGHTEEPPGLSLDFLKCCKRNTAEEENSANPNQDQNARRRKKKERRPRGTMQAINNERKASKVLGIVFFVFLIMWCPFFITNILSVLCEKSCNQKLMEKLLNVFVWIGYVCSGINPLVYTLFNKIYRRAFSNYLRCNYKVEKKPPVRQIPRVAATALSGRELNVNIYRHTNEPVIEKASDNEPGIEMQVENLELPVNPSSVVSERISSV
# [22] = molecular target: Proto-oncogene tyrosine-protein kinase Src (Homo sapiens) (UniProt P12931); assay: Inhibition of full length human N-terminal GST tagged SRC (1 to 536 end residues) expressed in baculovirus expression system using Srctide as substrate at 10 uM by mobility shift assay relative to control
# Chain of Proto-oncogene tyrosine-protein kinase Src (Homo sapiens) (P12931 2-536 limits assumed): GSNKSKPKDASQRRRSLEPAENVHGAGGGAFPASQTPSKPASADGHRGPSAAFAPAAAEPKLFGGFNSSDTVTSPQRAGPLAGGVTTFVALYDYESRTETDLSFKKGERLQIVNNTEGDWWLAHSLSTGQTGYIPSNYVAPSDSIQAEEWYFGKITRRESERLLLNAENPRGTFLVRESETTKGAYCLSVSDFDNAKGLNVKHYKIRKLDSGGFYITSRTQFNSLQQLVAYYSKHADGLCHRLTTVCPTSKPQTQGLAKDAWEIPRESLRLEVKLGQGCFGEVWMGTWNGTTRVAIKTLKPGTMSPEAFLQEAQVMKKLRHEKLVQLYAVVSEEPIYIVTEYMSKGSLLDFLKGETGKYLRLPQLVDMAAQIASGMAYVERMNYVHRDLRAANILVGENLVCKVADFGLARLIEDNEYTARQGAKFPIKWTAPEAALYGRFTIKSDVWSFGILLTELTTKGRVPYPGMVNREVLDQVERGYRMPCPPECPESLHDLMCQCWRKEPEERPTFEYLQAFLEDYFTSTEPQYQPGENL
# [23] = molecular target: Histone-lysine N-methyltransferase KMT5C (Homo sapiens, UniProt Q86Y97); assay: Inhibition of SUV420H2 (unknown origin) using [3H-SAM] as substrate incubated for 1 hr by scintillation proximity assay
# [24] = molecular target: Serine/threonine-protein kinase Chk1 (Homo sapiens) (UniProt O14757); assay: Inhibition of full length human N-terminal GST tagged CHK1 (1 to 476 end residues) expressed in baculovirus expression system using chk-tide as substrate at 10 uM by mobility shift assay relative to control
# Chain of Serine/threonine-protein kinase Chk1 (Homo sapiens) (O14757 whole entry): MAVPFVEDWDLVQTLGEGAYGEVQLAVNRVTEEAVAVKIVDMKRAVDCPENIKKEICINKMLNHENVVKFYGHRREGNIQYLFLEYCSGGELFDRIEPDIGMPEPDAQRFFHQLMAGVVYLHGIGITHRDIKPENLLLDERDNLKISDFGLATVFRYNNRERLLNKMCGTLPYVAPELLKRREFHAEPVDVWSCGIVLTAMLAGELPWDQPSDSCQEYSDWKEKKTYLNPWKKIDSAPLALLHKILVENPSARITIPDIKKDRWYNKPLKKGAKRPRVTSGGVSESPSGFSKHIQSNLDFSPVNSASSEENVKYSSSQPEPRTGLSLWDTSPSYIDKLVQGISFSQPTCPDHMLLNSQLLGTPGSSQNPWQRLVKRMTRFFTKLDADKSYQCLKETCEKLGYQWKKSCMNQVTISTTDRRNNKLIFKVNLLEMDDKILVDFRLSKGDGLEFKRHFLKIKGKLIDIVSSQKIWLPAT
# [25] = molecular target: Histone-lysine N-methyltransferase KMT5B (Homo sapiens, UniProt Q4FZB7); assay: Inhibition of SUV420H1 (unknown origin) using [3H-SAM] as substrate incubated for 1 hr by scintillation proximity assay
# Chain of Histone-lysine N-methyltransferase KMT5B (Q4FZB7 whole entry): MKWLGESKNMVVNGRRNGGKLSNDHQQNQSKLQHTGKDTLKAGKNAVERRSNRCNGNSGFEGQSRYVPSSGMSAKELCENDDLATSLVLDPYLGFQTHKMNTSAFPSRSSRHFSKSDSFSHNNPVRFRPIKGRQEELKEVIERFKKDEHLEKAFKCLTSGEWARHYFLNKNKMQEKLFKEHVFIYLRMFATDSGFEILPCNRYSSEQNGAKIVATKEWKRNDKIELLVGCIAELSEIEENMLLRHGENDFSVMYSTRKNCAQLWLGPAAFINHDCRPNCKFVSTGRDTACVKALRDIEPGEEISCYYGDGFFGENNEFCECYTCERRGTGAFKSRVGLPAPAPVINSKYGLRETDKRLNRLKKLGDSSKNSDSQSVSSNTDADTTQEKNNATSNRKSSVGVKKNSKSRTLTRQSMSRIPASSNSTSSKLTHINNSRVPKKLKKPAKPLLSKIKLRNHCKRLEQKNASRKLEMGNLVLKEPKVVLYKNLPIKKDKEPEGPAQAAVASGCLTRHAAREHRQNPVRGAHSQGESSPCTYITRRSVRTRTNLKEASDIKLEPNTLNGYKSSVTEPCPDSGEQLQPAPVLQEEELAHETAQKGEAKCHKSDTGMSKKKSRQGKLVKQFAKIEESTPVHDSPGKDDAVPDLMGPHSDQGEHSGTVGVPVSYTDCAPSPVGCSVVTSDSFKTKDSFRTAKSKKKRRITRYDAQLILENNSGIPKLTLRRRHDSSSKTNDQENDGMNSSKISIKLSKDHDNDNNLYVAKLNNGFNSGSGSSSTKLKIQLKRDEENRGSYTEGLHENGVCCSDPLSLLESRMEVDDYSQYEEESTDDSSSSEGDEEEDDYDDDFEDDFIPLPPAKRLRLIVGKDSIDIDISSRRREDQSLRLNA
# [26] = molecular target: Delta-type opioid receptor (Homo sapiens) (UniProt P41143); assay: Inhibition of DOR (unknown origin) at 10 uM by radioligand binding assay relative to control
# [27] = molecular target: Serine/threonine-protein kinase 4 (Homo sapiens) (UniProt Q13043); assay: Inhibition of full length human N-terminal GST tagged MST1 (1 to 487 end residues) expressed in baculovirus expression system using IRS1 as substrate at 10 uM by mobility shift assay relative to control
# [28] = molecular target: Muscarinic acetylcholine receptor M2 (Homo sapiens) (UniProt P08172); assay: Inhibition of M2 receptor (unknown origin) at 10 uM by radioligand binding assay relative to control
# Chain of Muscarinic acetylcholine receptor M2 (Homo sapiens) (P08172 whole entry, the tested form may be a part): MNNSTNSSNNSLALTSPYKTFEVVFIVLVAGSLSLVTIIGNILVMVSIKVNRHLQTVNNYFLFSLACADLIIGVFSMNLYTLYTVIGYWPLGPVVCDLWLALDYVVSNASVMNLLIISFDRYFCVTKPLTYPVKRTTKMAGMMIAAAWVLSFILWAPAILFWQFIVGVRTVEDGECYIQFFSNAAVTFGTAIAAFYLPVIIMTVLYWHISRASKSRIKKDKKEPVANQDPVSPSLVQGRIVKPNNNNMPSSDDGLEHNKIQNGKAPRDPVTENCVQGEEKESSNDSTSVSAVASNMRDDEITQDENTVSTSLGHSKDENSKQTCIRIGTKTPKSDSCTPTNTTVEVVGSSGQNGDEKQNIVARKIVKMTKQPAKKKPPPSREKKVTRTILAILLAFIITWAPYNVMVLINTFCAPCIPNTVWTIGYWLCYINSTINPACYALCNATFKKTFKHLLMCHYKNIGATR
# [29] = molecular target: Ephrin type-A receptor 2 (Homo sapiens) (UniProt P29317); assay: Inhibition of human cytoplasmic domain N-terminal GST tagged EPHA2 (572 to 976 end residues) expressed in baculovirus expression system using Blk/lyntide as substrate at 10 uM by mobility shift assay relative to control
# [30] = molecular target: Muscarinic acetylcholine receptor M1 (Homo sapiens) (UniProt P11229); assay: Inhibition of M1 receptor (unknown origin) at 10 uM by radioligand binding assay relative to control
# Chain of Muscarinic acetylcholine receptor M1 (Homo sapiens) (P11229 whole entry): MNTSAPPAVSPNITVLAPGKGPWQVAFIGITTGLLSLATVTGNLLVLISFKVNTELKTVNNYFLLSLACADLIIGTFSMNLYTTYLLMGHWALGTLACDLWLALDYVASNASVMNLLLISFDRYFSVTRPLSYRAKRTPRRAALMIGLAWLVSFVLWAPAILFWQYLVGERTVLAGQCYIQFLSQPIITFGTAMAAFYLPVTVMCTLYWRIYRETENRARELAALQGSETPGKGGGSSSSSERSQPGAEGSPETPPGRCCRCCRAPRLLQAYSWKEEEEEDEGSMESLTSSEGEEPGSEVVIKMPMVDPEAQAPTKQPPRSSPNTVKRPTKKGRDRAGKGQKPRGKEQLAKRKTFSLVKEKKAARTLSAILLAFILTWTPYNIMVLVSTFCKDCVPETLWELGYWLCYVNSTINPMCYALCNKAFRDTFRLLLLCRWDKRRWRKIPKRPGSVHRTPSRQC
structure (smiles),measurement,setting,value
CCCc1cc(C)[nH]c(=O)c1CNC(=O)c1cc(-c2ccc(N3CCN(C(C)C)CC3)nc2)cc2c1cnn2C(C)C,Activity,[1],Non-Toxic
same,pIC50,[2],< 4.00
same,inhibition,[3],-7%
same,inhibition,[4],14%
same,inhibition,[5],-2%
same,inhibition,[6],93%
same,inhibition,[7],-8%
same,pIC50,[8],< 4.00
same,Activity,DB [9],Active
same,inhibition,[10],-2%
same,pIC50,[11],< 4.00
same,inhibition,[12],6%
same,inhibition,[13],5%
same,Activity,DB [14],inactive
same,inhibition,[15],34%
same,inhibition,[16],-10%
same,inhibition,[17],10%
same,inhibition,[18],2%
same,inhibition,[19],-4%
same,inhibition,[20],9%
same,inhibition,[21],22%
same,inhibition,[22],-1%
same,pIC50,[23],< 4.00
same,inhibition,[24],-2%
same,pIC50,[25],< 4.00
same,inhibition,[26],21%
same,inhibition,[27],-5%
same,inhibition,[28],41%
same,inhibition,[29],-6%
same,inhibition,[30],19%
